Results on 58 compounds are retold here after patent US20250074888A1, “PYRIDAZINE DERIVATIVES AS MODULATORS OF NLRP3 INFLAMMASOME AND RELATED METHODS” (Neumora Therapeutics, Inc., priority 2021, published 2025).

One assay has as its target NLRP3 inflammasome (Homo sapiens, UniProt Q96P20). Briefly: NLRP3 inflammasome activation in THP1 macrophages (LPS priming, nigericin), IL-1β AlphaLISA. The settings on record: PMA-differentiated THP1, LPS 20 ng/ml 3 hrs, compound 1 hr, Nigericin 6.7 uM 3 hrs, supernatant. In kind it is cell-based.
A further assay deals with IL-6. Briefly: IL-6 release from LPS-primed, nigericin-treated THP1 macrophages, Hu IL-6 AlphaLISA. In kind it is cell-based. Conditions: Homo sapiens, THP-1; PMA-differentiated THP1, LPS 20 ng/ml 3 hrs, compound 1 hr, Nigericin 6.7 uM 3 hrs, supernatant. (Bead proximity is the source of the signal in Alpha formats.)

NLRP3 inflammasome, sequence (Q96P20 whole entry): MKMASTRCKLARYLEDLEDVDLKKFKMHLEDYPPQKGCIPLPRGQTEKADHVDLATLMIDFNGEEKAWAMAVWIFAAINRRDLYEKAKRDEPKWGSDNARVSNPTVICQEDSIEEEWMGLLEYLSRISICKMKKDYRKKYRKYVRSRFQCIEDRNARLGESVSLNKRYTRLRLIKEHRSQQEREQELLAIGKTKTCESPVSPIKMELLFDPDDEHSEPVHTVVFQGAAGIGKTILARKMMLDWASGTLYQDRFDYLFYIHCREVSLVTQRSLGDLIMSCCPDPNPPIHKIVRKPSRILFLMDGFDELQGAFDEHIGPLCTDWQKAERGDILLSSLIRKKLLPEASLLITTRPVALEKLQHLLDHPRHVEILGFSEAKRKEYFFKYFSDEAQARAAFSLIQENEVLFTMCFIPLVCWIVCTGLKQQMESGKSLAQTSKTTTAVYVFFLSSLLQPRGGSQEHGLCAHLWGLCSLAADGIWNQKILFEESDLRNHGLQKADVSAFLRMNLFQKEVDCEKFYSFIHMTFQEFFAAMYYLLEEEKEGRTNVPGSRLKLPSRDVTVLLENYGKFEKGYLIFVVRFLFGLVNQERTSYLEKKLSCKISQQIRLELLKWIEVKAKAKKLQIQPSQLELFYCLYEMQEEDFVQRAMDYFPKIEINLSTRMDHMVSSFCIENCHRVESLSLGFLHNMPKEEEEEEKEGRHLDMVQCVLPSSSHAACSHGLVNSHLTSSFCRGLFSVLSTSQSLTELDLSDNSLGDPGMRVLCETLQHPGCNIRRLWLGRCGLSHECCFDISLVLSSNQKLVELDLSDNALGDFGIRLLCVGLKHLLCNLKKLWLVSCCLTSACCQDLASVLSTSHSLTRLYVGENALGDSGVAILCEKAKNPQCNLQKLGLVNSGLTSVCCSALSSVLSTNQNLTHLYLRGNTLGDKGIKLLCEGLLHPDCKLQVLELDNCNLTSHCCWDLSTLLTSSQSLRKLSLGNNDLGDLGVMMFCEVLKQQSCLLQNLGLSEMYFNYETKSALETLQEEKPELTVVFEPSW

One may read the IC50 as the concentration at which inhibition is half-maximal. Low readings indicate greater potency, high ones weaker potency. On to `COc1cccc(-c2nnc(N[C@@H]3CCCN(C)C3)cc2C)c1` [compound 52], for which the results for the IC50 against NLRP3 inflammasome and with IL-6 were above 1 µM and above 10 µM, respectively.

With `Cc1cc(Cl)ccc1-c1ccc(N[C@@H]2CCCN(C)C2)nn1` [compound 125], the results for the IC50 at NLRP3 inflammasome and with IL-6 were 0.05 to 0.1 µM and above 10 µM, respectively.

Consider `Cc1cc(N[C@@H]2CCCN(C)C2)nnc1-c1ccc(C(F)(F)F)cc1C(F)F` [compound 165], for which the values for the IC50 on NLRP3 inflammasome and in the assay on IL-6 were at most 0.01 µM and above 10 µM, respectively.

For `Cc1cc(N[C@H]2CCCN(C(C)C)C2)nnc1-c1ccc(C(F)(F)F)cc1` [compound 131], the IC50 on NLRP3 inflammasome is 0.5 to 1 µM; in the assay on IL-6, above 10 µM.

Regarding `Cc1cc(N[C@H]2CN(C)CC[C@H]2F)nnc1-c1ccc(F)cc1` [compound 121], the IC50 against NLRP3 inflammasome is 0.1 to 0.5 µM; with IL-6, above 10 µM.

Consider `CN1CCC[C@@H](Nc2nnc(-c3ccc(C(F)(F)F)cc3)cc2Cl)C1` [compound 41], for which the figures for the IC50 at NLRP3 inflammasome and in the assay on IL-6 were 0.1 to 0.5 µM and above 10 µM, respectively.

With `Cc1cc(-c2ccc(C(F)(F)F)cc2C(F)F)nnc1N[C@@H]1CCCN(C)C1` [compound 166], the results for the IC50 on NLRP3 inflammasome and with IL-6 were 0.01 to 0.05 µM and above 10 µM, respectively.

As to `COc1cc(N[C@@H]2CCCN(C)C2)nnc1-c1ccc(C(F)(F)F)cc1` [compound 101], the IC50 against NLRP3 inflammasome was above 1 µM; in the assay with IL-6, above 10 µM.

Take `Cc1cc(N[C@@H]2CCCN(CCF)C2)nnc1-c1ccc(C(F)(F)F)cc1` [compound 25]: the IC50 was 0.05 to 0.1 µM against NLRP3 inflammasome and above 10 µM with IL-6.

Turning to `Cc1cc(-c2ccc(F)cc2)nnc1O[C@@H]1CCCN(C)C1` [compound 180], the 50% inhibitory concentration (IC50) was above 1 µM against NLRP3 inflammasome and above 10 µM in the assay with IL-6.

As to `Cc1cc(N[C@@H]2CCCN(C)C2)nnc1-c1ccc(C(F)F)cc1` [compound 157], the figures for the IC50 against NLRP3 inflammasome and in the assay on IL-6 were 0.01 to 0.05 µM and above 10 µM, respectively.

For `Cc1cc(-c2cc(C)c(N[C@@H]3CCCN(C)C3)nn2)ccc1F` [compound 112], the IC50 on NLRP3 inflammasome was above 1 µM; in the assay with IL-6, above 10 µM.

For the compound `CN1CCC[C@@H](Nc2cc(C#N)c(-c3ccc(C(F)(F)F)cc3)nn2)C1` [compound 59], the IC50 against NLRP3 inflammasome was 0.05 to 0.1 µM; in the assay on IL-6 it was above 10 µM.

In the case of `CN1CCC[C@@H](Nc2cc(C(F)(F)F)c(-c3ccc(F)cc3)nn2)C1` [compound 192], the IC50 on NLRP3 inflammasome is at most 0.01 µM; with IL-6, above 10 µM.

For the compound `Cc1cc(N[C@@H]2CCCN(C)C2)nnc1-c1ccc(F)c(F)c1` [compound 64], the IC50 against NLRP3 inflammasome is 0.1 to 0.5 µM; in the assay on IL-6, above 10 µM.

With `CCN(c1cc(C)c(-c2ccc(C(F)(F)F)cc2)nn1)[C@@H]1CCCN(C)C1` [compound 167], the IC50 on NLRP3 inflammasome was 0.1 to 0.5 µM; in the assay with IL-6, above 10 µM.

For the compound `CN1CCC[C@@H](Nc2ccc(-c3ccc(Cl)cc3C(F)(F)F)nn2)C1` [compound 4], the IC50 at NLRP3 inflammasome was in the range of 0.01 to 0.05 µM; in the assay with IL-6, 5 to 10 µM.

Take `Cc1cc(N[C@@H]2CCCN(C)C2)nnc1-c1ccc(C(F)(F)F)c(C#N)c1` [compound 63]: the IC50 against NLRP3 inflammasome was 0.1 to 0.5 µM; in the assay with IL-6 it was above 10 µM.

Regarding `COc1ccc(-c2cc(C)c(N[C@@H]3CCCN(C)C3)nn2)cc1` [compound 58], the IC50 on NLRP3 inflammasome is above 1 µM; with IL-6 it was above 10 µM.

As to `Cc1cc(-c2ccc(F)c(Cl)c2)nnc1N[C@@H]1CCCN(C)C1` [compound 73], the IC50 is 0.1 to 0.5 µM against NLRP3 inflammasome and above 10 µM with IL-6.

Turning to `Cc1cc(-c2cccc(C#N)c2)nnc1N[C@@H]1CCCN(C)C1` [compound 51], the IC50 against NLRP3 inflammasome was above 1 µM; in the assay with IL-6, above 10 µM.

On to `Cc1cc(-c2ccc(C(F)(F)F)c(F)c2)nnc1N[C@@H]1CCCN(C)C1` [compound 38], for which the IC50 is 0.5 to 1 µM at NLRP3 inflammasome and above 10 µM with IL-6.

As to `Cc1cc(-c2ccc(C(F)(F)F)cc2)nnc1N[C@@H]1CCN(C)C1` [compound 182], the IC50 is 0.05 to 0.1 µM against NLRP3 inflammasome and above 10 µM in the assay on IL-6.

`Cc1cc(-c2cccc(C(C)C)c2)nnc1N[C@@H]1CCCN(C)C1` [compound 79]: the values for the IC50 on NLRP3 inflammasome and with IL-6 were above 1 µM and above 10 µM, respectively.

For the compound `CN1CCC[C@@H](Nc2nnc(-c3ccc(Cl)cc3)cc2C(F)(F)F)C1` [compound 196], the IC50 was 0.5 to 1 µM against NLRP3 inflammasome and 1 to 5 µM in the assay with IL-6.

As for `Cc1cc(N[C@@H]2CCCN(C)C2)nnc1-c1ccc(C(F)(F)F)c(F)c1` [compound 26], the IC50 on NLRP3 inflammasome is 0.1 to 0.5 µM; in the assay with IL-6, above 10 µM.

For `Cc1cc(N[C@@H]2CCCCN(C)C2)nnc1-c1ccc(C(F)(F)F)cc1` [compound 176], the values for the IC50 against NLRP3 inflammasome and in the assay with IL-6 were 0.05 to 0.1 µM and above 10 µM, respectively.

On to `Cc1cc(-c2cc(C)c(N[C@@H]3CCCN(C)C3)nn2)ccc1Cl` [compound 163], for which the IC50 on NLRP3 inflammasome is above 1 µM; with IL-6, above 10 µM.

As to `Cc1cc(-c2ccc(C(F)(F)F)cc2)nnc1O[C@@H]1CCCN(C)C1` [compound 178], the IC50 on NLRP3 inflammasome is above 1 µM; in the assay with IL-6, 1 to 5 µM.

Take `Cc1cc(N[C@@H]2CCCN(C)C2)nnc1-c1ccc(C(F)(F)F)cc1` [compound 3, (R)-5-methyl-N-(1-methylpiperidin-3-yl)-6-(4-(trifluoromethyl)phenyl)-pyridazin-3-amine]: the results for the IC50 against NLRP3 inflammasome and with IL-6 were 0.01 to 0.05 µM and 5 to 10 µM, respectively.

On to `Cc1cc(F)cc(C)c1-c1ccc(N[C@@H]2CCCN(C)C2)nn1` [compound 110], for which the IC50 against NLRP3 inflammasome is above 1 µM; in the assay on IL-6 it was 5 to 10 µM.

As to `Cc1cc(N[C@@H]2CCCN(C)C2)nnc1-c1ccc(Cl)cc1C(F)(F)F` [compound 169], the figures for the IC50 against NLRP3 inflammasome and in the assay with IL-6 were 0.01 to 0.05 µM and above 10 µM, respectively.

With `Cc1cc(N[C@@H]2CCCN(CC(F)F)C2)nnc1-c1ccc(C(F)(F)F)cc1` [compound 60], the IC50 is 0.1 to 0.5 µM on NLRP3 inflammasome and 5 to 10 µM in the assay on IL-6.

`CN1CCC[C@@H](Nc2ccc(-c3ccccc3)nn2)C1` [compound 84]: the IC50 against NLRP3 inflammasome is above 1 µM; in the assay with IL-6, above 10 µM.

As to `Cc1cc(N[C@@H]2CCCN(C)C2)nnc1-c1cc(C)c(F)c(C)c1` [compound 33], the IC50 against NLRP3 inflammasome is 0.1 to 0.5 µM; with IL-6 it was above 10 µM.

Turning to `Cc1cc(N[C@H]2CN(C)CC[C@@H]2F)nnc1-c1ccc(C(F)(F)F)cc1` [compound 136], the IC50 on NLRP3 inflammasome lay in the range of 0.05 to 0.1 µM; in the assay on IL-6, 5 to 10 µM.

For `Cc1cc(N[C@@H]2CCN(C)C2)nnc1-c1ccc(C(F)(F)F)cc1` [compound 186], the IC50 at NLRP3 inflammasome is at most 0.01 µM; with IL-6, above 10 µM.

Regarding `Cc1cc(N[C@@H]2CCCN(C)C2)nnc1-c1ccc(Cl)cc1Cl` [compound 171], the IC50 was at most 0.01 µM against NLRP3 inflammasome and above 10 µM in the assay on IL-6.

In the case of `Cc1cc(N[C@H]2CN(C)CC[C@H]2F)nnc1-c1ccc(C(F)(F)F)cc1` [compound 74, N-((3S,4R)-4-fluoro-1-methylpiperidin-3-yl)-5-methyl-6-(4-(trifluoromethyl)-phenyl)pyridazin-3-amine], the IC50 at NLRP3 inflammasome was above 1 µM; with IL-6 it was above 10 µM.

Consider `CCN1CCC[C@@H](Nc2cc(C)c(-c3ccc(F)cc3)nn2)C1` [compound 122], for which the values for the IC50 at NLRP3 inflammasome and with IL-6 were 0.01 to 0.05 µM and above 10 µM, respectively.

On to `Cc1cc(C(F)(F)F)cc(C)c1-c1ccc(N[C@@H]2CCCN(C)C2)nn1` [compound 42], for which the results for the IC50 at NLRP3 inflammasome and in the assay on IL-6 were 0.5 to 1 µM and 5 to 10 µM, respectively.

Regarding `COc1cc(C(F)(F)F)ccc1-c1cc(C)c(N[C@@H]2CCCN(C)C2)nn1` [compound 35], the IC50 against NLRP3 inflammasome was 0.5 to 1 µM; in the assay on IL-6 it was above 10 µM.

`COc1ccc(-c2nnc(N[C@@H]3CCCN(C)C3)cc2C)cc1` [compound 32]: the values for the IC50 on NLRP3 inflammasome and in the assay with IL-6 were 0.1 to 0.5 µM and above 10 µM, respectively.

In the case of `Cc1cc(-c2nnc(N[C@@H]3CCCN(C)C3)cc2C)ccc1Cl` [compound 162], the figures for the IC50 against NLRP3 inflammasome and with IL-6 were 0.01 to 0.05 µM and above 10 µM, respectively.

Turning to `CN1CCC[C@@H](Nc2ccc(-c3ccc(Cl)cc3Cl)nn2)C1` [compound 18], the IC50 against NLRP3 inflammasome lay in the range of 0.05 to 0.1 µM; in the assay on IL-6, 5 to 10 µM.

Consider `CCN1CCC[C@@H](Nc2cc(C)c(-c3ccc(Cl)cc3)nn2)C1` [compound 155], for which the IC50 is at most 0.01 µM against NLRP3 inflammasome and above 10 µM with IL-6.

Take `CCc1cccc(-c2nnc(N[C@@H]3CCCN(C)C3)cc2C)c1` [compound 55]: the IC50 was above 1 µM against NLRP3 inflammasome and above 10 µM with IL-6.

`CN1CCC[C@@H](Nc2cc(C(F)(F)F)c(-c3ccc(C(F)(F)F)cc3)nn2)C1` [compound 61]: the figures for the IC50 against NLRP3 inflammasome and in the assay with IL-6 were 0.01 to 0.05 µM and above 10 µM, respectively.

As for `Cc1cc(-c2nnc(N[C@@H]3CCCN(C)C3)cc2C)ccc1C(F)(F)F` [compound 99], the IC50 against NLRP3 inflammasome is 0.5 to 1 µM; in the assay on IL-6, above 10 µM.

In the case of `Cc1cc(N[C@@H]2CCCN(C)C2)nnc1-c1ccc(C2CCC2)cc1` [compound 28], the IC50 at NLRP3 inflammasome lay in the range of 0.1 to 0.5 µM; in the assay with IL-6, 5 to 10 µM.

On to `Cc1cc(-c2cccc(F)c2)nnc1N[C@@H]1CCCN(C)C1` [compound 56], for which the IC50 at NLRP3 inflammasome is above 1 µM; in the assay with IL-6 it was above 10 µM.

Regarding `Cc1cc(N[C@@H]2CCCN(CC(F)F)C2)nnc1-c1ccc(F)cc1` [compound 116], the IC50 on NLRP3 inflammasome was above 1 µM; in the assay on IL-6, above 10 µM.

In the case of `Cc1cc(N[C@@H]2CCCN(C)C2)nnc1-c1ccc(C(F)(F)F)cc1C#N` [compound 40], the IC50 against NLRP3 inflammasome lay in the range of 0.05 to 0.1 µM; with IL-6, 5 to 10 µM.

`COc1cc(N[C@@H]2CCCN(C)C2)nnc1-c1ccc(C(F)(F)F)cc1C` [compound 172]: the IC50 at NLRP3 inflammasome was above 1 µM; in the assay on IL-6, above 10 µM.

`Cc1cc(-c2ccc(C(F)(F)F)c(Cl)c2)nnc1N[C@@H]1CCCN(C)C1` [compound 105]: the figures for the IC50 against NLRP3 inflammasome and in the assay with IL-6 were above 1 µM and above 10 µM, respectively.

For `Cc1cc(-c2ccc(C(F)(F)F)cc2)nnc1N[C@H]1CN(C)CC[C@H]1F` [compound 88], the IC50 is above 1 µM against NLRP3 inflammasome and above 10 µM in the assay on IL-6.

With `Cc1cc(N[C@@H]2CCCN(C)C2)nnc1-c1ccc(Cl)cc1C(F)F` [compound 174], the IC50 was at most 0.01 µM on NLRP3 inflammasome and 5 to 10 µM in the assay on IL-6.

On to `Cc1cc(N[C@@H]2C[C@@H](F)CN(C)C2)nnc1-c1ccc(F)cc1` [compound 140], for which the results for the IC50 on NLRP3 inflammasome and with IL-6 were above 1 µM and above 10 µM, respectively.
